{"source": "patent US5356775A", "about": "“Primary structure for functional expression from complementary DNA of a mammalian ATP-sensitive potassium channel” (Brigham & Women's Hospital, priority 1992, dated 1994)", "key": {"[1]": {"system": "Ba2+-sensitive potassium currents (IK(Ba)) expressed from rat kidney ISOM poly(A)+ RNA", "assay": "Two-electrode voltage clamp of Xenopus oocytes injected with rat kidney ISOM poly(A)+ RNA", "format": "cell-based", "details": "5 mM Ba2+, [K+]ext = 50 mM, test potentials -80 to 0 mV", "experimental": "(A) Representative current tracings evoked by 450 ms voltage steps ranging from -80 mV to 0 mV in 20 mV increments from a holding potential (VH) of -60 mV in oocytes injected with ~25 ng ISOM poly(A)^+ RNA or 50 nl H2 O [K^+ ]ext =50 mM.\n(B) Current-voltage relationships of IK(Ba) in a representative ISOM poly(A)^+ RNA-injected oocyte ( ) and a H2 O-injected control (.circle.). […] Both current amplitudes and Vm were measured 75 ms after initiation of test pulses; Ba^2+ -sensitive current (KK(Ba)) amplitudes were obtained by determining the difference in current amplitudes before and after the addition of 5 mM Ba^2+ at each test potential and plotted as a function of observed Vm.\n(§1) Size-fractionated mRNA with a size of ~2-3 kb yielded a highly augmented mean inward IK(Ba) sixteen-fold greater than that of H2 O-injected controls when injected into oocytes (FIG. 1D) and was therefore used to construct a directional cDNA library in the vector pSPORT1. RNA transcribed in vitro from pooled clones using T7 RNA polymerase was injected into Xenopus oocytes and tested for IK(Ba) currents using two-electrode voltage clamping. Functional screening of cRNA led to the identification of a 2.1 kb cDNA, ROMK1."}, "[2]": {"target": "T1, ROMK1 (Rattus norvegicus, UniProt P35560)", "T1 construct": "This coding region encodes a protein of 391 amino acids; expressed in transfected cells; host or cells: Xenopus laevis oocytes injected with cRNA transcribed in vitro from ROMK1 cDNA (pSPORT1)", "T1 sequence (P35560 1-391)": "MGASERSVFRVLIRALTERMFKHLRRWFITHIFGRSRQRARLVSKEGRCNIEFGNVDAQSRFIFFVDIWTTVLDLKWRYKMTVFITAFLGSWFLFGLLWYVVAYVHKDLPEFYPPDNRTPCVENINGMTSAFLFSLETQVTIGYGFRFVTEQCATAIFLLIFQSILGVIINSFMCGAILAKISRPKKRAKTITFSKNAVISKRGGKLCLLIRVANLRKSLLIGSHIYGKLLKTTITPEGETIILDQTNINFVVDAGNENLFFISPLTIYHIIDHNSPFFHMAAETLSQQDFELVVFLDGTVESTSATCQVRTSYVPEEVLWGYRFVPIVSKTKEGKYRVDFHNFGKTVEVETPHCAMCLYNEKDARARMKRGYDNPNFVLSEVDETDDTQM", "assay": "Two-electrode voltage clamp of Xenopus oocytes injected with ROMK1 mRNA", "format": "cell-based", "details": "10 mM, [K+]ext = 50 mM, test potentials -60 to 0 mV", "experimental": "(E) Representative current tracings in oocytes injected with ~0.3 ng ROMK1 mRNA or H2 O evoked by 450 ms test pulses from a VH =-45 mV to test potentials from -60 mV to 0 mV in 20 mV increments in the presence or absence of 10 mM Ba2+, [K+ ]ext =50 mM. ROMK1 currents were blocked by 10 mM Ba^2+ at the test potentials used.\nas §1"}, "[3]": {"target": "renal Type 3 KATP channels", "details": "read-out: Ki of intracellular ATP; cited from earlier work"}, "[4]": {"system": "Type 1 channels in pancreatic β-cells", "details": "read-out: Ki of intracellular ATP; cited from earlier work"}, "[5]": {"target": "Type 1 channels in cardiac myocytes", "details": "read-out: Ki of intracellular ATP; cited from earlier work"}, "[6]": {"target": "Type 2 KATP channels (central neurons)", "details": "central neurons (e.g. ventromedial hypothalamic nucleus), read-out: Ki of ATP; cited from earlier work"}, "[7]": {"target": "T2, ROMK1 K+ channels (Rattus norvegicus, UniProt P35560)", "T2 construct": "This coding region encodes a protein of 391 amino acids; expressed in transfected cells; host or cells: Xenopus laevis oocytes injected with cRNA transcribed in vitro from ROMK1 cDNA (pSPORT1)", "T2 sequence (P35560 1-391)": "T1 sequence (P35560 1-391)", "assay": "Single channel patch clamp recording, inside-out patches excised from ROMK1 mRNA-injected Xenopus oocytes", "format": "cell-based", "experimental": "FIG. 2. Single channel characteristics of ATP-sensitive ROMK1 K^+ channels expressed in Xenopus oocytes. Channel activities were recorded in inside-out patches excised from oocyte membranes.\nChanges made in bath solution ATP concentration are indicated above the current recording: ATP-free (solid line), 0.025 mM ATP (dashed line). Recordings were taken at VH =-80 mV. Interruptions were introduced into the recording shown in order to display the entire current tracing. Expanded current tracings taken from the continuous recording are indicated by numbers and arrowheads.\n(E) The inhibitory effect of 2.5 mM ATP on channel activity. Changes in bath solution ATP concentration are indicated above the current recording; 0.025 mM ATP (dashed line), 2.5 mM ATP (solid line). […] The recording was taken at VH =-40 mV. Expanded current tracings taken from the recording at various time intervals are indicated by arrows and numbers. The pipette solution contained (mM): 150 or 50 KCl, 1 CaCl2, 1 MgCl2, 5 HEPES (pH 7.4). The bath solution contained (mM): 0,0.025 or 2.5 MgATP, 150 KCl, 1 MgCl2 , 5 EGTA, 5 HEPES (pH 7.4).\nSingle channel recordings were obtained in oocytes injected with ROMK1 mRNA following vitelline membrane removal using standard patch clamp techniques to further characterize the properties of ROMK1 K^+ currents (FIG. 2). […] At negative membrane potentials, the amplitude of inward currents increased linearly with increasing hyperpolarization relative to Erev (Erev =O mV for symmetrical K^+ solutions). […] Similar inwardly rectifying currents were also observed in the cell-attached patch configuration. The K^+ selectivity of these currents was confirmed by varying the pipette solution K^+ concentration ([K^+ ]ext). Reversal potentials obtained with pipette solutions containing either 150 mM KCl or 50 mM KCl+100 mM NaCl were in complete agreement with the Nernstian predictions for Erev under these conditions (FIGS. 2B, 2C); the permeability ratio (PNa /PK) of 0.025 for these channels indicates high K^+ selectivity. […] Epithelial KATP channels (classified as Type 3) present in renal tubular cells from the thick ascending limb of Henle and the conical collecting duct (Bliech et al., Pflugers Arch. 415:449 (1990); Wang et al., Am. J. Physiol. 258:F244 (1990); Wang et al., Am. J. Physiol. 259:F494 (1990)) have single conductances of ~25-60 pS and share similar characteristics.\nThe effect of intracellular ATP on ROMK1 currents was also investigated using the inside-out patch configuration. […] In contrast, channel activity was routinely maintained for 30 minutes or longer by excision of patches directly into a bath solution containing 25 μM MgATP. […] Channels with these properties and electrophysiological characteristics were never observed in either cell-attached or inside-out patches from H2 O-injected control oocytes; in contrast, several channels of this type were typically active in patches from ROMK1 mRNA-injected oocytes. The incidence of ROMK1 channels in patches was 94% (63 of 67 patches) which was consistent with the high channel density observed in these experiments. […] In channels of both types, channel rundown rapidly occurs in excised membrane patches; this loss of channel activity is reversed or prevented, at least partially, by the addition of MgATP (Ashcroft et al., Cellular Signalling 2:197 (1990); Ashcroft, F. M., Ann. Rev. Neurosci. 11:97 (1988); Nichols et al., Am. J. Physiol. 261:H1675 (1991); Wang et al., J. Gen. Physiol. 98:35 (1991))."}}, "note": "Entries after “also recorded” stand apart in the source; their conditions may differ."}
{"smiles": "[Ba+2]", "note": "[Ba^2+]", "values": [{"measurement": "inhibition of currents expressed in RNA-injected oocytes", "setting": "[1]", "value": "marked inhibition"}, {"measurement": "inhibition (block) of ROMK1 currents", "setting": "[2]", "value": "blocked"}]}
{"smiles": "Nc1ncnc2c1ncn2[C@@H]1O[C@H](COP(=O)(O)OP(=O)(O)OP(=O)(O)O)[C@@H](O)[C@H]1O", "note": "[ATP]", "values": [{"measurement": "Ki", "setting": "[3]", "value": "200 to 500", "unit": "µM"}, {"measurement": "Ki", "setting": "[4]", "value": "10 to 20", "unit": "µM"}, {"measurement": "Ki", "setting": "[5]", "value": "17 to 100", "unit": "µM"}, {"measurement": "Ki", "setting": "[6]", "value": "2000 to 3000", "unit": "µM"}, {"measurement": "effect on channel activity of high ATP at the cytosolic face of inside-out patches", "setting": "[7]; 1.0-2.5 mM ATP, patches initially excised into bath containing 25 μM ATP", "value": "rapid and marked inhibition of channel activity"}, {"measurement": "effect of 2.5 mM ATP on channel activity", "setting": "[7]; ATP raised from 0.025 mM to 2.5 mM by puffer pipette, VH = -40 mV", "value": "inhibition of channel activity"}, {"measurement": "restoration of channel activity following channel rundown", "setting": "[7]; readdition of 25 μM (0.025 mM) ATP after ATP-free bath", "value": "Partial restoration of channel activity; also recorded: channel recovery"}, {"measurement": "reversibility of inhibition by ATP", "setting": "[7]; wash-out of the high ATP-containing solution", "value": "reversible"}]}
{"smiles": "Nc1ncnc2c1ncn2[C@@H]1O[C@H](COP(=O)(O)OP(=O)(O)OP(=O)(O)O)[C@@H](O)[C@H]1O", "note": "[MgATP]", "values": [{"measurement": "time channel activity was maintained in excised patches", "setting": "[7]; patches excised directly into bath solution containing 25 μM MgATP", "value": "≥ 30", "unit": "min"}]}
{"smiles": "CC[N+](CC)(CC)CC", "note": "[TEA^+]", "values": [{"measurement": "inhibition (block) of ROMK1 currents", "setting": "[2]", "value": "no inhibition"}]}
